Measurements published in patent US9593140B2, “Antibacterial tylosin derivatives and methods for their preparation” (Bayer Intellectual Property GmbH, priority 2011, dated 2017).

Legend:
Type in all cases: cell-based
[1] = test system: Mannhemia hemolytica KB345; test: Paper disc assay, M. hemolytica KB345 (Tilmicosin-sensitivity strain); settings: for zone of inhibition at 1 mg/disc / zone of inhibition at 3 mg/disc / zone of inhibition at 10 mg/disc / zone of inhibition at 30 mg/disc / zone of inhibition at 100 mg/disc: 24 h; for zone of inhibition at 1 mg/disc: 1 mg/6 mm disk
Description: (§1) (1) Antibacterial Activities Against Mannheimia and Pasteurella were Determined by the Following Steps:
(§2) 1) M. hemolytica KB345 (Tilmicosin-sensitivity strain) and M. hemolytica KB346 (Tilmicosin-low sensitivity strain) were provided. KB 345 strain stored at −80° C. was seeded to BHIB agar medium (10 mL) by using Microbank beads (Pro-Lab) and platinum nail. After statically incubating the KB 345 strain for 24 hours at 37° C., it was seeded to maintaining slant BHIB agar medium (7 mL) by using platinum loop, further statically incubated for 24 hours at 37° C. to obtain slant. One platinum loop of KB 345 strain stored at the slant was inoculated into a large test tube charged with BHIB liquid medium (10 mL) and then incubated for 24 hours at 37° C. with shaking.
(§3) 2) A paper disc (ADVANTEC, Φ:6 mm) was impregnated with a solution of test compound and dried under reduced pressure.
(§4) 3) To a melted BHIB agar medium was inoculated 1% of the broth obtained from step 1) above to prepare a test plate. After the medium set, the paper disc prepared in step 2) above was put on the plate and it was incubated at 37° C.
(§5) 4) After one day, the inhibition zone diameter and clarity (A to E) were determined.

[2] = test system: Mannhemia hemolytica KB346; test: Paper disc assay, M. hemolytica KB346 (Tilmicosin-low sensitivity strain); settings: Table 3
Description: as §1, §2, §3, §4, §5
For KB346 strain, the same procedures were repeated.

[3] = test system: Bacillus subtilis ATCC6633; test: Paper disc assay, Bacillus subtilis (S)
Description: (§6) (2) Antibacterial activities against other bacteria were determined with Micrococcus luteus ATCC9341 (1), Bacillus subtilis […] (s), Escherichia coli NIHJ (c), Xanthomonas campestris KB88 (X), Mucor racemosus IFO 4581 (Mu) and Candida albicans ATCC 64548 (Ca).
(§7) Bacillus subtilis ATCC6633 was incubated in Davis synthetic medium and then the seed broth was combined with the medium in the ratio of 1:99 to obtain a test plate. Micrococcus luteus ATCC9341, Escherichia coli NIHJ and Xanthomonas campestris KB88 were respectively incubated in Nutrient agar medium and inoculated at 0.2%, 0.5% and 1.0%. Mucor racemosus IFO 4581 and Candida albicans ATCC 64548 were respectively incubated in GY agar medium and then inoculated at 0.3% and 0.2%.
(§8) A paper disc (ADVANTEC, Φ:6 mm) was impregnated with a solution of test compound and dried under reduced pressure. The paper disc was put on the test plate and it was incubated for 24 hours at 37° C. After incubation, the inhibition zone diameter and clarity (A to E) were determined.

[4] = test system: Micrococcus luteus ATCC9341; test: Paper disc assay, Micrococcus luteus (l)
Description: as §6, §7, §8

[5] = test system: Xanthomonas campestris KB88; test: Paper disc assay, Xanthomonas campestris (X)
Description: as §6, §7, §8

| SMILES | zone of inhibition at 3 mg/disc ([1]; Table 2, 3 mg/6 mm disk) [mm] | zone of inhibition at 10 mg/disc ([1]; Table 2, 10 mg/6 mm disk) [mm] | zone of inhibition at 30 mg/disc ([1]; Table 2, 30 mg/6 mm disk) [mm] | zone of inhibition at 100 mg/disc ([1]; Table 2, 100 mg/6 mm disk) [mm] | Inhibition zone (mm) ([3]; 0.1 mg/6 mm disc) | Inhibition zone (mm) ([3]; 1 mg/6 mm disc) | Inhibition zone (mm) ([3]; 10 mg/6 mm disc) | Inhibition zone (mm) ([4]; 0.1 mg/6 mm disc) | Inhibition zone (mm) ([4]; 1 mg/6 mm disc) | Inhibition zone (mm) ([4]; 10 mg/6 mm disc) | Inhibition zone (mm) ([5]; 0.1 mg/6 mm disc) | Inhibition zone (mm) ([5]; 1 mg/6 mm disc) | Inhibition zone (mm) ([5]; 10 mg/6 mm disc) | other results |
| --- | --- | --- | --- | --- | --- | --- | --- | --- | --- | --- | --- | --- | --- | --- |
| CC[C@H]1OC(=O)C[C@@H](O)[C@H](C)[C@@H](O[C@@H]2O[C@H](C)[C@@H](O)[C@H](N(C)C)[C@H]2O)[C@@H](CC=O)C[C@@H](C)C(=O)/C=C/C(C)=C/[C@@H]1CO[C@@H]1O[C@H](C)[C@@H](O)[C@@H](OC)[C@H]1OC [YT6, Desmycosin] |  |  |  |  |  |  |  |  |  |  |  |  |  | Inhibition zone (mm) ([1]; Table 2, 30 mg/6 mm disk): 10.5 mm; Inhibition zone (mm) ([2]; 3 mg/6 mm disk): 8.5 mm; Inhibition zone (mm) ([2]; 10 mg/6 mm disk): 13.5 mm; Inhibition zone (mm) ([2]; 30 mg/6 mm disk): 17.5 mm; Inhibition zone (mm) ([2]; 100 mg/6 mm disk): 21.0 mm |
| CC[C@H]1OC(=O)C[C@@H](O)[C@H](C)[C@@H](O[C@@H]2O[C@H](C)[C@@H](O)[C@H](N(C)C)[C@H]2O)[C@@H](CCCl)C[C@@H](C)C(=O)/C=C/C(C)=C/[C@@H]1CO[C@@H]1O[C@H](C)[C@@H](O)[C@@H](OC)[C@H]1OC [YT8, 20-chloro-20-deoxodesmycosin] |  |  |  |  |  |  |  |  |  |  |  |  |  | Inhibition zone (mm) ([1]; Table 2, 10 mg/6 mm disk): 12.5 mm; Inhibition zone (mm) ([1]; Table 2, 30 mg/6 mm disk): 18.0 mm; Inhibition zone (mm) ([1]; Table 2, 100 mg/6 mm disk): 20.0 mm; Inhibition zone (mm) ([2]; 30 mg/6 mm disk): 11.0 mm; Inhibition zone (mm) ([2]; 100 mg/6 mm disk): 14.5 mm |
| CC[C@H]1OC(=O)C[C@@H](O)[C@H](C)[C@@H](O[C@@H]2OC(C)[C@@H](O)C(N(C)C)C2O)[C@@H](CCn2cc(-c3ccccn3)nn2)C[C@@H](C)C(=O)/C=C/C(C)=C/[C@@H]1CO[C@@H]1OC(C)[C@@H](O)C(OC)C1OC (stereo partly drawn) [YT12, 20-(4-(pyridine-2-yl)-1H-1,2,3-triazol-1-yl)-20-deoxodesmycosin] | 13 | 17 | 19 | 22 | 7 | 12.5 | 14 | 12 | 18.5 | 25 | 7 | 12.5 | 27 | zone of inhibition at 1 mg/disc ([1]; Table 2): 9 mm |
| CC[C@H]1OC(=O)C[C@@H](O)[C@H](C)[C@@H](O[C@@H]2OC(C)[C@@H](O)C(N(C)C)C2O)[C@@H](CCn2cc(-c3ccccc3)nn2)C[C@@H](C)C(=O)/C=C/C(C)=C/[C@@H]1CO[C@@H]1OC(C)[C@@H](O)C(OC)C1OC (stereo partly drawn) [YT13, 20-(4-phenyl-1H-1,2,3-triazol-1-yl)-20-deoxodesmycosin] | 15 | 16 | 18 | 21 | 9.5 | 12 | 15.5 | 15 | 21.5 | 27.5 | 8 | 17 | 23.5 | zone of inhibition at 1 mg/disc ([1]; Table 2): 11 mm |
| CC[C@H]1OC(=O)C[C@@H](O)[C@H](C)[C@@H](O[C@@H]2OC(C)[C@@H](O)C(N(C)C)C2O)[C@@H](CCn2cc(CCCCCl)nn2)C[C@@H](C)C(=O)/C=C/C(C)=C/[C@@H]1CO[C@@H]1OC(C)[C@@H](O)C(OC)C1OC (stereo partly drawn) [YT19, 20-(4-(4-chlorobutyl)-1H-1,2,3-triazol-1-yl)-20-deoxodesmycosin] | 14 | 16 | 18 | 21 | 7 | 10.5 | 15 | 13 | 19 | 26 | 7 | 14.5 | 23 |  |
| CC[C@H]1OC(=O)C[C@@H](O)[C@H](C)[C@@H](O[C@@H]2OC(C)[C@@H](O)C(N(C)C)C2O)[C@@H](CCn2cc(-c3ccc(N(C)C)cc3)nn2)C[C@@H](C)C(=O)/C=C/C(C)=C/[C@@H]1CO[C@@H]1OC(C)[C@@H](O)C(OC)C1OC (stereo partly drawn) [YT29, 20-(4-(4-dimethylaminophenyl)-1H-1,2,3-triazol-1-yl)-20-deoxodesmycosin] | 13.5 | 16 | 17.5 | 20 | 7 | 10 | 15 | 11 | 19.5 | 25.5 | 7 | 15 | 24 |  |
| CC[C@H]1OC(=O)C[C@@H](O)[C@H](C)[C@@H](O[C@@H]2OC(C)[C@@H](O)C(N(C)C)C2O)[C@@H](CCn2cc(-c3cnc4ccccc4c3)nn2)C[C@@H](C)C(=O)/C=C/C(C)=C/[C@@H]1CO[C@@H]1OC(C)[C@@H](O)C(OC)C1OC (stereo partly drawn) [YT35, 20-(4-(3-quinoline)-1H-1,2,3-triazol-1-yl)-20-deoxodesmycosin] | 14 | 17 | 19 | 21 |  |  |  |  |  |  |  |  |  |  |
| CC[C@H]1OC(=O)C[C@@H](O)[C@H](C)[C@@H](O[C@@H]2OC(C)[C@@H](O)C(N(C)C)C2O)[C@@H](CCn2cc(CCCCO)nn2)C[C@@H](C)C(=O)/C=C/C(C)=C/[C@@H]1CO[C@@H]1OC(C)[C@@H](O)C(OC)C1OC (stereo partly drawn) [YT36, 20-(4-(4-butanol)-1H-1,2,3-triazol-1-yl)-20-deoxodesmycosin] |  |  |  | 9 |  |  |  |  |  |  |  |  |  |  |
| CC[C@H]1OC(=O)C[C@@H](O)[C@H](C)[C@@H](O[C@@H]2OC(C)[C@@H](O)C(N(C)C)C2O)[C@@H](CCn2cc(CO)nn2)C[C@@H](C)C(=O)/C=C/C(C)=C/[C@@H]1CO[C@@H]1OC(C)[C@@H](O)C(OC)C1OC (stereo partly drawn) [YT37, 20-(4-(methanol)-1H-1,2,3-triazol-1-yl)-20-deoxodesmycosin] |  |  | 9 | 12.5 |  |  |  |  |  |  |  |  |  |  |
| CC[C@H]1OC(=O)C[C@@H](O)[C@H](C)[C@@H](O[C@@H]2O[C@H](C)[C@@H](O)[C@H](N(C)C)[C@H]2O)[C@@H](CCn2cc(-c3ccccc3)nn2)C[C@@H](C)C(=O)/C=C/C(C)=C/[C@@H]1CN=[N+]=[N-] [YT114, 20-(4-phenyl-1H-1,2,3-triazol-1-yl)-20-deoxo-23-azido-23-deoxy-5-O-mycaminosyltylonolide] |  |  |  |  |  |  |  |  |  |  |  |  |  | Inhibition zone (mm) ([1]; Table 4, 3 mg/6 mm disk): 11.5 mm; Inhibition zone (mm) ([1]; Table 4, 10 mg/6 mm disk): 17.5 mm; Inhibition zone (mm) ([1]; Table 4, 30 mg/6 mm disk): 21.0 mm; Inhibition zone (mm) ([1]; Table 4, 100 mg/6 mm disk): 21.0 mm |
